# Activity calls are given as the source filed them. The calls are words filed in the database; no cut-off is given here.
# Columns and labels:
# Mus musculus [1] = test: Neurotoxicity in ip dosed Swiss albino mouse assessed as minimal motor impairment at 300 mg/kg, ip after 4 hrs by rotarod test; type: toxicity, organism-based; parameters: dose 300 mg/kg, route intraperitoneal; details: in vivo
# Mus musculus [2] = test: Neurotoxicity in Swiss albino mouse assessed as minimal motor impairment at 300 mg/kg, ip after 0.5 hrs by rotarod test; type: toxicity, organism-based; parameters: dose 300 mg/kg, route intraperitoneal; details: in vivo
# Mus musculus [3] = test: Antiepileptic activity in ip dosed Swiss albino mouse assessed as protection against subcutaneous pentylenetetrazol-induced clonic seizures at 300 mg/kg, ip after 0.5 hrs; type: functional, organism-based; parameters: dose 300 mg/kg
# Mus musculus [4] = test: Antiepileptic activity in Swiss albino mouse assessed as protection against maximum electric shock-induced seizure at 300 mg/kg, ip after 4 hrs; type: functional, organism-based; parameters: dose 300 mg/kg
# Mus musculus [5] = test: Antiepileptic activity in ip dosed Swiss albino mouse assessed as dose required to protect against subcutaneous pentylenetetrazol-induced clonic seizures after 4 hrs; type: functional; details: read-out: MED
# Mus musculus [6] = test: Antiepileptic activity in ip dosed Swiss albino mouse assessed as dose required to protect against maximum electric shock-induced seizure after 0.5 hrs; type: functional; details: read-out: MED
# Mus musculus [7] = test: Antiepileptic activity in ip dosed Swiss albino mouse assessed as protection against subcutaneous pentylenetetrazol-induced clonic seizures at 300 mg/kg, ip after 4 hrs; type: functional, organism-based; parameters: dose 300 mg/kg
# Mus musculus [8] = test: Antiepileptic activity in Swiss albino mouse assessed as protection against maximum electric shock-induced seizure at 300 mg/kg, ip after 0.5 hrs; type: functional, organism-based; parameters: dose 300 mg/kg
# Mus musculus [9] = test: Antiepileptic activity in ip dosed Swiss albino mouse assessed as dose required to protect against maximum electric shock-induced seizure after 4 hrs; type: functional; details: read-out: MED
# Mus musculus [10] = test: Antiepileptic activity in ip dosed Swiss albino mouse assessed as dose required to protect against subcutaneous pentylenetetrazol-induced clonic seizures after 0.5 hrs; type: functional; details: read-out: MED
# Rattus norvegicus [11] = test: Antiepileptic activity in Wistar rat assessed as protection against maximum electric shock-induced seizure at 30 mg/kg, po after 2 hrs; type: functional
# Rattus norvegicus [12] = test: Antiepileptic activity in Wistar rat assessed as protection against maximum electric shock-induced seizure at 30 mg/kg, po after 1 hr; type: functional
# Rattus norvegicus [13] = test: Antiepileptic activity in Wistar rat assessed as protection against maximum electric shock-induced seizure at 30 mg/kg, po after 0.5 hrs; type: functional
# Rattus norvegicus [14] = test: Antiepileptic activity in Wistar rat assessed as protection against maximum electric shock-induced seizure at 30 mg/kg, po after 0.25 hrs; type: functional
# Mus musculus [15] = test: Neurotoxicity in ip dosed Swiss albino mouse assessed as dose required for minimal motor impairment after 4 hrs by rotarod test; type: toxicity, organism-based; details: in vivo
# Mus musculus [16] = test: Neurotoxicity in ip dosed Swiss albino mouse assessed as dose required for minimal motor impairment after 0.5 hrs by rotarod test; type: toxicity, organism-based; details: in vivo
# Rattus norvegicus [17] = test: Antiepileptic activity in Wistar rat assessed as protection against maximum electric shock-induced seizure at 30 mg/kg, po after 4 hrs; type: functional
# Rattus norvegicus [18] = test: Neurotoxicity in Wistar rat assessed as minimal motor impairment at 30 mg/kg, po by rotarod method; type: toxicity, organism-based; parameters: dose 30 mg/kg, route oral; details: in vivo
SMILES,Activity (Mus musculus [1]),Activity (Mus musculus [2]),Activity (Mus musculus [3]),Activity (Mus musculus [4]),minimal effective dose (Mus musculus [5]),minimal effective dose (Mus musculus [6]),Activity (Mus musculus [7]),Activity (Mus musculus [8]),minimal effective dose (Mus musculus [9]),minimal effective dose (Mus musculus [10]),Activity (Rattus norvegicus [11]),Activity (Rattus norvegicus [12]),Activity (Rattus norvegicus [13]),Activity (Rattus norvegicus [14]),MTC (Mus musculus [15]),MTC (Mus musculus [16]),Activity (Rattus norvegicus [17]),Activity (Rattus norvegicus [18])
O=C(/N=C/c1ccc([N+](=O)[O-])cc1)Nc1ccc2c(c1)C(=O)C(=O)N2CN1CCOCC1,Non-toxic,Non-toxic,inactive,inactive,300 mg/kg,100 mg/kg,–,–,–,–,–,–,–,–,–,–,–,–
O=C(/N=C/c1cccc([N+](=O)[O-])c1)Nc1ccc2c(c1)C(=O)C(=O)N2CN1CCOCC1,–,–,inactive,–,–,–,inactive,inactive,300 mg/kg,–,–,–,–,–,–,–,–,–
O=C(/N=C/c1ccccc1)Nc1ccc2c(c1)C(=O)C(=O)N2CN1CCCCC1,–,–,–,inactive,–,–,inactive,inactive,–,300 mg/kg,–,–,–,–,–,–,–,–
O=C(/N=C/c1cccc([N+](=O)[O-])c1)Nc1ccc2c(c1)C(=O)C(=O)N2CN1CCCCC1,–,–,inactive,inactive,300 mg/kg,–,–,inactive,–,–,–,–,–,–,–,–,–,–
O=C(/N=C/c1ccc([N+](=O)[O-])cc1)Nc1ccc2c(c1)C(=O)C(=O)N2CN1CCCCC1,–,–,–,–,300 mg/kg,30 mg/kg,–,–,100 mg/kg,300 mg/kg,0%,25%,50%,0%,300 mg/kg,300 mg/kg,0%,Non-toxic
COc1ccc(/C=N/C(=O)Nc2ccc3c(c2)C(=O)C(=O)N3CN2CCCCC2)cc1,–,–,–,–,–,–,inactive,inactive,300 mg/kg,300 mg/kg,–,–,–,–,–,–,–,–
O=C(/N=C/c1ccc(F)cc1)Nc1ccc2c(c1)C(=O)C(=O)N2CN1CCOCC1,Non-toxic,–,–,–,300 mg/kg,30 mg/kg,–,–,100 mg/kg,100 mg/kg,100%,50%,50%,25%,–,300 mg/kg,100%,Non-toxic
CCC1(C)CC(=O)NC1=O (centres undefined) [ETHOSUXIMIDE],Non-toxic,Non-toxic,–,inactive,300 mg/kg,–,–,inactive,–,100 mg/kg,–,–,–,–,–,–,–,–
O=C(/N=C/c1ccc(Cl)cc1)Nc1ccc2c(c1)C(=O)C(=O)N2CN1CCOCC1,Non-toxic,Non-toxic,–,–,300 mg/kg,30 mg/kg,–,–,100 mg/kg,300 mg/kg,100%,50%,50%,25%,–,–,100%,Non-toxic
O=C(/N=C/c1ccc(F)cc1)Nc1ccc2c(c1)C(=O)C(=O)N2CN1CCCCC1,–,–,–,–,–,100 mg/kg,inactive,–,300 mg/kg,100 mg/kg,–,–,–,–,300 mg/kg,300 mg/kg,–,–
Cc1ccc(/C=N/C(=O)Nc2ccc3c(c2)C(=O)C(=O)N3CN2CCOCC2)cc1,Non-toxic,Non-toxic,inactive,inactive,300 mg/kg,300 mg/kg,–,–,–,–,–,–,–,–,–,–,–,–
COc1ccc(/C=N/C(=O)Nc2ccc3c(c2)C(=O)C(=O)N3CN2CCOCC2)cc1,–,–,inactive,inactive,300 mg/kg,–,–,inactive,–,–,–,–,–,–,300 mg/kg,300 mg/kg,–,–
O=C(/N=C/c1ccc(Br)cc1)Nc1ccc2c(c1)C(=O)C(=O)N2CN1CCCCC1,–,–,inactive,–,300 mg/kg,30 mg/kg,–,–,300 mg/kg,–,100%,50%,50%,25%,300 mg/kg,100 mg/kg,100%,Non-toxic
O=C(/N=C/c1ccc(O)cc1)Nc1ccc2c(c1)C(=O)C(=O)N2CN1CCCCC1,Non-toxic,Non-toxic,inactive,inactive,300 mg/kg,300 mg/kg,–,–,–,–,–,–,–,–,–,–,–,–
O=C1NC(=O)C(c2ccccc2)(c2ccccc2)N1 [PHENYTOIN],–,–,inactive,–,–,30 mg/kg,inactive,–,30 mg/kg,–,75%,75%,100%,25%,100 mg/kg,100 mg/kg,75%,Non-toxic
O=C(/N=C/c1ccc(Br)cc1)Nc1ccc2c(c1)C(=O)C(=O)N2CN1CCOCC1,Non-toxic,Non-toxic,–,–,–,100 mg/kg,inactive,–,300 mg/kg,300 mg/kg,–,–,–,–,–,–,–,–
Cc1ccc(/C=N/C(=O)Nc2ccc3c(c2)C(=O)C(=O)N3CN2CCCCC2)cc1,–,–,–,inactive,–,–,inactive,inactive,–,300 mg/kg,–,–,–,–,–,–,–,–
O=C(/N=C/c1ccccc1Cl)Nc1ccc2c(c1)C(=O)C(=O)N2CN1CCCCC1,–,–,–,–,–,100 mg/kg,inactive,–,300 mg/kg,300 mg/kg,–,–,–,–,300 mg/kg,100 mg/kg,–,–
O=C(/N=C/c1ccccc1Cl)Nc1ccc2c(c1)C(=O)C(=O)N2CN1CCOCC1,Non-toxic,–,–,–,–,100 mg/kg,inactive,–,300 mg/kg,300 mg/kg,–,–,–,–,–,300 mg/kg,–,–
O=C(/N=C/c1ccccc1)Nc1ccc2c(c1)C(=O)C(=O)N2CN1CCOCC1,–,–,inactive,–,–,–,inactive,inactive,300 mg/kg,–,–,–,–,–,–,–,–,–
O=C(/N=C/c1ccc(Cl)cc1)Nc1ccc2c(c1)C(=O)C(=O)N2CN1CCCCC1,–,Non-toxic,–,–,–,100 mg/kg,inactive,–,300 mg/kg,300 mg/kg,–,–,–,–,300 mg/kg,–,–,–

# From ChEMBL document CHEMBL1914354, “Design, synthesis and antiepileptic properties of novel 1-(substituted benzylidene)-3-(1-(morpholino/piperidino methyl)-2,3-dioxoindolin-5-yl)urea derivatives” (Eur J Med Chem, 2011)
